According to patent US12624009B2, “Hydrate of VEGFR inhibitor, crystal form thereof and preparation method therefor” (CHENGDU EASTON BIOPHARMACEUTICALS CO., LTD, priority 2023, dated 2026):

Key:
Type in all cases: physicochemical
[1] = Stability of crystal forms suspended and stirred in water, solids characterised by XRD; details: for crystal form stability in water: 25° C. and 37° C., 5 h and 24 h, compared with crystal forms I, II, III, VII, IV, VIII and C
Text: The solids were filtered and subjected to XRD characterization.

[2] = Storage stability investigation of crystal forms of fruquintinib (crystal form after storage); details: for crystal form stability under the conditions investigated: 25° C./RH60% and 40° C./RH75%, storage up to 6 months (FIG. 4, 5A, 5B)
[3] = Grinding in planetary ball mill, XRD compared with simulated single-crystal pattern; details: 60 HZ, about 30 s
Text: The XRD pattern after grinding was substantially consistent with FIG. 1B.

SMILES | Suspending and stirring for 5 h Crystal form ([1]; 25° C.) | Suspending and stirring for 24 h Crystal form ([1]; 25° C.) | Suspending and stirring for 5 h Crystal form ([1]; 37° C.) | Suspending and stirring for 24 h Crystal form ([1]; 37° C.) | crystal form stability under the conditions investigated [2] | Crystal form after storage ([2]; 25° C./RH60%, 6 months) | Crystal form after storage ([2]; 40° C./RH75%, 6 months) | crystal form stability in water [1] | crystal form stability in water ([1]; listed as crystal form α of fruquintinib) | polymorphic transition after grinding [3] | Crystal form after storage ([2]; 25° C./RH60%, 2 months) | Crystal form after storage ([2]; 40° C./RH75%, 2 months)
CNC(=O)c1c(C)oc2cc(Oc3ncnc4cc(OC)c(OC)cc34)ccc12 [Crystal form C, 6-(6,7-dimethoxyquinazolin-4-yl-oxy)-N,2-dimethylbenzofuran-3-carboxamide] | Crystal form α | Crystal form α | Crystal form α | Crystal form α |  |  |  |  |  |  |  | 
CNC(=O)c1c(C)oc2cc(Oc3ncnc4cc(OC)c(OC)cc34)ccc12 [Crystal form I, 6-(6,7-dimethoxyquinazolin-4-yl-oxy)-N,2-dimethylbenzofuran-3-carboxamide] | Crystal form I |  | Crystal form I |  |  |  |  |  |  |  |  | 
CNC(=O)c1c(C)oc2cc(Oc3ncnc4cc(OC)c(OC)cc34)ccc12 [Crystal form II, 6-(6,7-dimethoxyquinazolin-4-yl-oxy)-N,2-dimethylbenzofuran-3-carboxamide] | Crystal form α | Crystal form α | Crystal form α | Crystal form α |  |  |  |  |  |  |  | 
CNC(=O)c1c(C)oc2cc(Oc3ncnc4cc(OC)c(OC)cc34)ccc12 [Crystal form III, 6-(6,7-dimethoxyquinazolin-4-yl-oxy)-N,2-dimethylbenzofuran-3-carboxamide] | Crystal form α | Crystal form α | Crystal form α | Crystal form α |  |  |  |  |  |  |  | 
CNC(=O)c1c(C)oc2cc(Oc3ncnc4cc(OC)c(OC)cc34)ccc12 [Crystal form IV, 6-(6,7-dimethoxyquinazolin-4-yl-oxy)-N,2-dimethylbenzofuran-3-carboxamide] | Crystal form α | Crystal form α | Crystal form α | Crystal form α |  |  |  |  |  |  |  | 
CNC(=O)c1c(C)oc2cc(Oc3ncnc4cc(OC)c(OC)cc34)ccc12 [Crystal form VII, 6-(6,7-dimethoxyquinazolin-4-yl-oxy)-N,2-dimethylbenzofuran-3-carboxamide] | Crystal form α | Crystal form α | Crystal form α | Crystal form α |  |  |  |  |  |  |  | 
CNC(=O)c1c(C)oc2cc(Oc3ncnc4cc(OC)c(OC)cc34)ccc12 [Crystal form VIII, 6-(6,7-dimethoxyquinazolin-4-yl-oxy)-N,2-dimethylbenzofuran-3-carboxamide] | Crystal form α | Crystal form α | Crystal form α | Crystal form α |  |  |  |  |  |  |  | 
CNC(=O)c1c(C)oc2cc(Oc3ncnc4cc(OC)c(OC)cc34)ccc12 [Crystal form α (after grinding), 6-(6,7-dimethoxyquinazolin-4-yl-oxy)-N,2-dimethylbenzofuran-3-carboxamide] |  |  |  |  | good crystal form stability | Crystal form α | Crystal form α |  |  |  |  | 
CNC(=O)c1c(C)oc2cc(Oc3ncnc4cc(OC)c(OC)cc34)ccc12 [Crystal form α + crystal form I, 6-(6,7-dimethoxyquinazolin-4-yl-oxy)-N,2-dimethylbenzofuran-3-carboxamide] | Crystal form α | Crystal form α | Crystal form α | Crystal form α |  |  |  |  |  |  |  | 
CNC(=O)c1c(C)oc2cc(Oc3ncnc4cc(OC)c(OC)cc34)ccc12 [Crystal form α, 6-(6,7-dimethoxyquinazolin-4-yl-oxy)-N,2-dimethylbenzofuran-3-carboxamide] | Crystal form α | Crystal form α | Crystal form α | Crystal form α | good crystal form stability | Crystal form α | Crystal form α | good stability in water | better crystal form stability | did not undergo polymorphic transition | Crystal form α | Crystal form α
